Measured values reported in patent US20260364072A1, “METHODS FOR PROMOTING EXPANSION OF HUMAN CD34+ CELLS IN VIVO AND FOR PROMOTING NEURAL REGENERATION” (THE REGENTS OF THE UNIVERSITY OF CALIFORNIA, priority 2023, published 2026).

Legend:
[1] = system: ADAR1, CD44-012, PTK2B-202, MCL1 transcripts; assay: Transcripts in human CD34+ cells from treated engrafted sAML mice (qRT-PCR, RNA-seq); assay type: in vivo
Method: FIG. […]
For RNA editing analyses of whole transcriptome sequencing data, previous datasets were utilized from CD34^+ cells isolated from the spleens of sAML50261-engrafted mice treated once weekly with Rebecsinib in a dose-response assay (5 or 10 mg/kg),^14 along with CD34^+ cells harvested from mice that were serially transplanted with CD34+ cells from sAML50261-engrafted mice that had been treated twice weekly with Rebecsinib at 10 mg/kg (no further treatment was delivered to serial transplant recipients). Due to limiting number of cells remaining after treatment, cells were pooled from n=4 to 5 mice per condition for sequencing. RNA editing analysis was performed as previously described.^5
For quantitative analysis of splice isoform expression, RNA editing rates, and whole gene expression by qRT-PCR, cells or tissue fragments were harvested in RNA lysis buffer and total RNA was extracted using RNeasy mini or micro extraction kits (QIAGEN, Germantown, MD) following the manufacturer's protocol including a DNase incubation step to digest any trace genomic DNA present. Levels of ADAR1 variants and LSC-specific transcripts were quantified by qRT-PCR as previously described.^14 RNA-editing site-specific qRT-PCR (RESSqPCR) was performed for variants in AZIN1 transcripts.^53 Additional species-specific primers were also designed to quantify intron retention rates in cells treated with Rebecsinib as a biomarker of response to RNA splicing modulation. Specifically, for the two-step SYBR-green based assays, as previously described,^7,14,53 100-1000 ng of RNA were subjected to cDNA synthesis using the SUPERSCRIPT III™ (ThermoFisher Scientific) kit followed by qRT-PCR using SYBR GreenER (ThermoFisher Scientific) master mix according to the manufacturer's recommended procedures. qRT-PCR was performed using SYBR GREENER SUPER MIX™ (Life Technologies) on BioRad iQ5™, C1000 TOUCH™, or BioRad CFX384™ instruments. Human splice isoform-specific, RNA editing site-specific qPCR (RESSqPCR)^53. Primer sets that have not been previously published were designed and tested for efficiency followed by analyses in samples exposed to Rebecsinib, with species-specific HPRT primers used as controls. Samples with Ct<35 for the species-specific reference gene, HPRT, were included in analyses. Relative mRNA expression values were calculated using the 2^−ΔCT method, with normalization to untreated or vehicle-treated controls.^54
In humanized mouse models, sAML cells (CD34^+) from two unique […] patient samples that were splicing factor mutated or unmutated were utilized, including sAML50261 and sAML2008-5.^14 For in vivo efficacy and therapeutic index studies, sAML CD34^+ cells, or normal human cord blood-derived or aged bone marrow-derived HSPCs (CD34^+), were transplanted (50,000-200,000 cells per mouse) intrahepatically into neonatal Rag2^−/−γc^−/− mice, or intravenously into adult NSG-SGM3 mice (Jackson Laboratories, Bar Harbor, ME). A subset of experiments was performed with normal aged bone marrow cells that were transduced with the lentiviral ADAR1 nanoluc-GFP reporter vector prior to transplant. For transplantation into adult mice, animals were irradiated with ^137Cs at a dose of 150 cGy 24 hr before IV transplantation. After engraftment levels reached >1% human CD45^+ hematopoietic cells in the peripheral blood, animals were distributed among treatment groups for treatment with Rebecsinib or vehicle control essentially as previously described, with an increased dosing regimen of twice weekly (versus once weekly in prior studies)^14 and an optimized in vivo formulation (2% w/w EtOH, 5% w/v KOLLIPHOR HS™ 15 in 0.9% saline). […]

sAML LSC = assay: Serial transplantation assays of sAML LSC; assay type: in vivo, human cells in mice
Method: To test this, we performed serial transplantation assays of cells harvested from sAML50261 LSC engrafted mice that were treated intravenously twice weekly for two weeks with Rebecsinib at 10 mg/kg (serial transplant recipients received no further treatment). […] Thus, reductions in ADAR1p150-mediated RNA editing activity following Rebecsinib treatment correspond with a reversion to a healthy splice isoform expression profile^14 in engrafted human progenitors.
In humanized mouse models, sAML cells (CD34^+) from two unique […] patient samples that were splicing factor mutated or unmutated were utilized, including sAML50261 and sAML2008-5.^14 For in vivo efficacy and therapeutic index studies, sAML CD34^+ cells, or normal human cord blood-derived or aged bone marrow-derived HSPCs (CD34^+), were transplanted (50,000-200,000 cells per mouse) intrahepatically into neonatal Rag2^−/−γc^−/− mice, or intravenously into adult NSG-SGM3 mice (Jackson Laboratories, Bar Harbor, ME). A subset of experiments was performed with normal aged bone marrow cells that were transduced with the lentiviral ADAR1 nanoluc-GFP reporter vector prior to transplant. For transplantation into adult mice, animals were irradiated with ^137Cs at a dose of 150 cGy 24 hr before IV transplantation. After engraftment levels reached >1% human CD45^+ hematopoietic cells in the peripheral blood, animals were distributed among treatment groups for treatment with Rebecsinib or vehicle control essentially as previously described, with an increased dosing regimen of twice weekly (versus once weekly in prior studies)^14 and an optimized in vivo formulation (2% w/w EtOH, 5% w/v KOLLIPHOR HS™ 15 in 0.9% saline). For animals that received transplants of cells transduced with the lentiviral ADAR1 nanoluc-GFP reporter, mice were imaged 15 weeks after transplant on the IVIS 200, as previously described.^79 Following treatment with Rebecsinib (five intravenous doses total over a two-week period), hematopoietic tissues (peripheral blood, bone marrow, spleens) were collected and analyzed by flow cytometry as previously described.^14 For splice isoform-specific qRT-PCR or RNA-seq analyses on cells from in vivo studies, human CD34^+ LSC from bone marrows and spleens of engrafted mice were isolated by magnetic bead separation (Miltenyi Biotec).
Additional aliquots of CD34+ cells from bone marrow and/or spleens of treated and control animals were used for serial transplantation assays after Rebecsinib treatment, including engraftment studies and overall survival assays. In a separate cohort of animals, mice were treated with Fedratinib for two weeks (twice daily oral delivery at 60 mg/kg) as a positive control for modulation of ADAR1 expression and activity.^8

phospho-STAT3 = phospho-STAT3 intracellular flow cytometry; assay type: cell-based, human
Method: Flow cytometry for stem and progenitor cell surface antibody staining was performed as previously described.^14 For phospho-flow, a subset of samples was fixed and permeabilized, then blocked and stained with APC-conjugated ADAR1p150 antibody (cat ab269444, 1:25) and pSTAT3 APC (cat 17-9033-42, 1:10) (Table S2). Fractions were analyzed with the BD LSR FORTESSA™ (Sanford Consortium for Regenerative Medicine Stem Cell Core) and FLOWJO™ software (TreeStar, Ashland, OR).

[2] = CD34+ cells, sAML50261 engrafted mice, vs vehicle

For `CC[C@H](OC)[C@@H](C)[C@H]1O[C@@H]1[C@@H](O)[C@H](C)/C=C/C=C(\C)[C@H]1OC(=O)C[C@H](O)CC[C@@](C)(O)[C@@H](OC(C)=O)/C=C/[C@@H]1C` [Rebecsinib], the “MCL1-S isoform expression in human CD34+ cells” value ([1]; CD34+ cells from bone marrows of treated mice) was “increase in the pro-apoptotic MCL1-S isoform expression”, the CD44-012 splice isoform [1, 2] was “significant reduction” and the PTK2B-202 splice isoform [1, 2] was “significant reduction”. The “total ADAR1 RNA expression by qRT-PCR” value [1, 2] was “significant reduction in total ADAR1 RNA expression”, the “MCL1 splice isoform switching” value ([1]; mice treated with 5 or 10 mg/kg, RNA-seq) was “splice isoform switching of MCL1-L to MCL1-S” and the “ADAR1 transcript splicing (RNA-seq)” value ([1]; sAML50261 engrafted mice, Rebecsinib-treated samples) was “unique retained intron regions and alternative splice site usage”. The “ADAR-208 expression after serial transplantation compared with ADAR1p110” value (sAML LSC; CD34+ cells from serial transplant recipients, RNA-seq) was “sustained reductions in expression”, the “frequency of hematopoietic progenitors (CD34+CD38+Lin-) in spleens of serial transplant recipients” value (sAML LSC; sAML50261, 10 mg/kg intravenously twice weekly for two weeks (primary mice)) was “reduced frequency of hematopoietic progenitors” and the “LSC self-renewal on serial transplantation” value (sAML LSC; splicing factor mutated sAML (2008-5)) was “significantly reduced LSC self-renewal”. For the same compound, the “overall survival of serial transplant recipients” value (sAML LSC; splicing factor unmutated sAML 50261) was “significant improvement in overall survival” and the phospho-STAT3 expression (phospho-STAT3) was “reduced phospho-STAT3 expression”.
